Patent EP1638538B1, “DOSAGE FORM” (priority 2003, dated 2005)

Experiment: Time for complete absorption of sunflower oil into compressed sporopollenin tablets with an absorption aiding liquid
Assay type: physicochemical
Procedure: Sporopollenin (0.5 g) tablets were prepared by compressing in a 16 mm die at a pressure of 10 tonnes for 2 min. […] The resulting powder was dried in a dessicator over P2O5 in oven at 50°C until constant weight.

[1] = sunflower oil (1 ml) + liquid (1 ml), 0.5 g tablet, room temperature

Row | Time for complete absorption (sunflower oil, repeated at 40 °C) | SMILES | Time for complete absorption [1]
1 | – | CCOC(C)=O [ethyl acetate] | 50 s
2 | – | CC#N [acetonitrile] | 20 s
3 | 12 s | CCO [ethanol] | 20 s
4 | – | ClCCl [dichloromethane] | 35 s
